Data on one molecule can be found in paper PMC12750388, “Coumarin-1,2,3-Triazole Conjugates as Molecular Scaffolds for the Selective Induction of ROS-Driven Apoptosis in Cancer Cells in the Development of Pyruvate Kinase M2 Inhibitors” (ACS Omega, 2025).

For data set [1], the system named is SCC-25. The data set is described as follows: MTT cell viability assay, SCC-25. Type of data set: cell-based, human. Here is the method: (§1) The viability of SCC cell lines and primary human fibroblast cells was evaluated using the MTT assay to determine half maximal inhibitory concentration (IC50). Briefly, cells were grown in triplicate in 96-well plates (5 × 10^3 cells/well) until confluence. Then the medium was removed, fresh medium was added, and the cells were returned to the incubator in the presence of different compounds. DMSO at the same concentrations was used as a 100% cell viability control. After 48 h, cells were incubated with 5 mg/mL MTT reagent (3-(4,5-dimethyl-2-thiazolyl)-2,5-diphenyl-2-H-tetrazolium bromide) (Sigma-Aldrich Co., St. Louis, MO, USA) for 3.5 h. After that, formazan crystals were dissolved in MTT solvent solution (DMSO/methanol 1:1 v/v), and the absorbance at 560 nm was evaluated using an EPOCH microplate spectrophotometer (BioTek Instruments, Winooski, VT, USA) with the background absorbance at 670 nm subtracted. Each of the 12 compounds (7a–7l) was tested at six different concentrations, ranging from 6.25 to 200 μM in cancer and normal cell lines. Control (carboplatin) was tested at six different concentrations ranging from 25 μM to 800 μM in cancer cells and from 50 μM to 1600 μM in normal cells.
(§2) Half-maximal inhibitory concentration (IC50) values were obtained from the MTT assay of at least three independent replicates through nonlinear regression analysis using GraphPad Prism 5.0 software (Intuitive Software for Science, San Diego, CA, USA). Data were presented as means ± standard deviation (SD). A log dose–response curve (inhibitor vs response) using the least-squares method was used to determine the IC50 and SD from the data. The selectivity index (SI) was calculated as the ratio between the IC50 in normal cells and the IC50 in cancer cells, obtained by dividing the IC50 of normal cells by the IC50 of cancer cells.

In data set [2] the test system is SCC-4. The data set is described as follows: MTT cell viability assay, SCC-4. It counts as cell-based, human. The protocol: as §1, §2
In data set [3] the test system is SCC-9 cells. Description: Cell cycle and sub-G1 analysis by flow cytometry. It counts as cell-based, human. Here is the method:
The interference of 7f in the cell cycle (G1, […], and G2/M) and DNA fragmentation (sub-G1) was assessed by flow cytometry analysis using a Guava Muse Cell Analyzer (Cytek Biosciences, Fremont, CA, USA). DNA staining was conducted using a pH 7.6 propidium iodide buffer composed of 3.4 mM Trizma Hydrochloride (Sigma-Aldrich Co., St. Louis, MO, USA), 10 mM NaCl (Sigma-Aldrich Co., St. Louis, MO, USA), 0.1% (v/v) NP40 (Sigma-Aldrich Co., St. Louis, MO, USA), 700 U/L RNase, and 0.075 mM propidium iodide (Sigma-Aldrich Co., St. Louis, MO, USA). An amount of 1 × 10^5 and 5 × 10^5 SCC-9 cells were seeded in six-well plates for the treatment with the negative control (DMSO) and 7f, respectively. […] Cells were then trypsinized and stained with propidium iodide buffer. DNA content was analyzed by collecting 10,000 events in the aforementioned cytometer. Data were analyzed using Flowing Software (Turku Biosciences, Turku, Finland).
Background: In flow cytometry, cells or beads pass a laser one at a time.

The test system of data set [4] is erythrocytes. The data set is described as follows: Hemolysis assay. Type of data set: cell-based. The note with it: human erythrocytes, 300 μM. The protocol:
(§3) A hemolysis assay to evaluate surfactant effects of tested substances was performed using human blood approved by the Research Ethics Committee of Universidade Federal Fluminense (CAAE: 43134721.4.0000.5626). Erythrocytes are isolated upon three repeated centrifugation cycles at 1500 rpm for 15 min. Between each cycle of centrifugation, supernatant was removed, and a pH 7.5 PBS (phosphate-buffered saline) solution supplemented with 10 mM glucose was added to remove lysed erythrocytes. The number of cells was determined in an Automatic Cell Counter (Thermo Fisher, Waltham, MA, USA). Erythrocytes were then plated in 96-well plates at a concentration of 4 × 10^8 cells/well in triplicates, and 10 μL of compounds were added at a final concentration of 300 μM in PBS with glucose (final volume 100 μL). Ten μL of PBS was used as a negative control, and 10 μL of PBS with 0.1% Triton X-100 was used as a positive control. Data reading was performed with EPOCH (BioTek Instruments, Winooski, VT, USA) at an absorbance of 540 nm.

A short description of data set [5]: Hemolysis assay. Type of data set: cell-based. The note with it: isolated human erythrocytes, pH 7.5, read-out: level of hemolysis. Here is the method: as §3
The test system of data set [6] is caspases 3 and 7 in SCC-9 cells. The data set is described as follows: Caspase-Glo 3/7 assay. It counts as cell-based, human. The note with it: SCC-9, 2 × IC50, 12 and 24 h. Here is the method:
Analysis of activation of caspases 3 and 7 was assessed by using the Caspase-Glo 3/7 Assay Kit (Promega Corporation, Madison, WI, USA; G8090). The reagent provided by the kit causes cell lysis; therefore, parallelly, a cell viability assay using violet crystal was performed to normalize the detection of active caspases by viable cells. Caspases 3 and 7 procedures consisted of seeding 5 × 10^3 SCC-9 cells in a 96-well plate. […] A plate with wells without cells was used as a control. Cells and cell-free wells remained in treatment at times of interest. Then, caspase activity was detected according to the manufacturer’s instructions. Results were obtained using a TD 20/20 luminometer (Turner Designs, Sunnyvale, CA, USA). […] Then the medium was removed, and the wells were gently washed with PBS. PBS was removed, and cells were fixed with 100% alcohol that was removed after 10 min. Cells were stained with 0.05% violet crystal for 10 min. Wells were gently washed with deionized water, and […] methanol was added to each well, followed by agitation of the plate for 10 min. Absorbance of wells was read in an EPOCH (BioTek Instruments, Winooski, VT, USA) at an absorbance of 595 nm.

The term IC50 denotes the concentration at which inhibition is half-maximal. A low value points to inhibition by little substance. In the case of `O=C1C=C(OCc2cn(CCCOc3cc(=O)oc4ccccc34)nn2)C(=O)c2ccccc21` [Compound 7f, 2-((1-(3-((2-Oxo-2H-chromen-4-yl)oxy)propyl)-1H-1,2,3-triazol-4-yl)methoxy)naphthalene-1,4-dione], the IC50 in data set [1] (Homo sapiens, SCC-25, MTT, 48 h) was 11.1 µM; in data set [2] (Homo sapiens, SCC-4, MTT, 48 h), 7.93 µM. The “SI SCC-25” value in data set [1] (IC50 human gingival fibroblast / IC50 SCC-25) came to 2.05. Moreover, the “SI SCC-4” value in data set [2] (IC50 human gingival fibroblast / IC50 SCC-4) is on record as 2.87. Moreover, the “S-phase arrest versus control (DMSO)” value in data set [3] (SCC-9, 2 × IC50, 24 h) was “approximately twice as frequent as in the control group”. Also, the “cell cycle S population” value in data set [3] (SCC-9, 2 × IC50, 24 h (DMSO 12.33%)) is given as 22.99%. In data set [3] (SCC-9, 2 × IC50, 24 h (DMSO 22.59%)), the “cell cycle G2/M population” value was found to be 14.45%. Moreover, the “cell cycle G1 population” value in data set [3] (SCC-9, 2 × IC50, 24 h (DMSO 64.99%)) is reported as 62.31%. For the same molecule, the “Sub-G1 population (DNA fragmentation)” value in data set [3] (SCC-9, 2 × IC50, 48 h (DMSO 5.04%)) was 29.84%. The “increase in the sub-G1 population” value in data set [3] (SCC-9, 48 h, versus DMSO) was determined as 5 fold. Also, the “hemolytic activity / membrane integrity” value in data set [4] is reported as “lack of significant hemolytic activity”. In addition, the hemolysis at 300 µM in data set [5] is about 5%. Moreover, the “caspases 3 and 7 activity, luminescent signal versus DMSO” value in data set [6] is “approximately 2 fold”.
